Our source for the T/C values is PubChem BioAssay AID206 (DTP/NCI, 2004).

Each structure is given as a SMILES string. Several values for one entry are separate records, joined by “and”; a condition that tells them apart may be missing. Identical values can stand only once. Inconclusive results are not listed.

The test system of this experiment is nude mice, HT29 intrarenal xenograft, tumor weight T/C. The experiment can be described thus: NCI In Vivo Anticancer Drug Screen. Data for tumor model HT29;CX-1 Human Adenocarcinoma (MER+) (intrarenal inoculation) in NU/NU Swiss (nude) mice. To be noted: endpoint: mean tumor weight change, higher = larger tumour. The method in brief:
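T/C = treated-group value ÷ vehicle-group value, using tumor size or survival.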

Where [1] appears, read: dose: 150.0 mg/kg/injection, schedule: Q04DX004 (sc), vehicle: suspension in saline.
[2] abbreviates: dose: 25.0 mg/kg/injection, schedule: Q01DX010 (sc), vehicle: saline.
The mark [3] stands for this setting: dose: 75.0 mg/kg/injection, schedule: Q04DX004 (sc), vehicle: saline with Tween-80.
[4] abbreviates: dose: 150.0 mg/kg/injection, schedule: Q04DX004 (sc), vehicle: saline with Tween-80.
[5] abbreviates: dose: 300.0 mg/kg/injection, schedule: Q04DX004 (sc), vehicle: saline with Tween-80.
The mark [6] stands for this setting: dose: 50.0 mg/kg/injection, schedule: Q04DX004 (sc), vehicle: saline.

In the case of `N=C(N)SCc1cccc2c(=O)cc(-c3ccccc3)oc12`, the T/C under setting [1] is 110 % of control; the T/C (dose: 300.0 mg/kg/injection, schedule: Q04DX004 (sc), vehicle: suspension in saline) was 113 % of control; the T/C (dose: 600.0 mg/kg/injection, schedule: Q04DX004 (sc), vehicle: suspension in saline) is 106 % of control; the T/C (dose: 1200.0 mg/kg/injection, schedule: Q04DX004 (sc), vehicle: suspension in saline) was 69 % of control.

Consider `C1OC1C1CO1` (configuration not stated), for which the T/C reads like this: (dose: 12.5 mg/kg/injection, schedule: Q01DX010 (sc), vehicle: saline) 164 % of control; under setting [2], 168 % of control.

As to `Nc1nc(N)c2c(ccc3c2ccn3Cc2cccc([N+](=O)[O-])c2)n1`, the T/C runs as follows: (dose: 6.25 mg/kg/injection, schedule: Q04DX004 (sc), vehicle: saline with Tween-80) 97 % of control; (dose: 12.5 mg/kg/injection, schedule: Q04DX004 (sc), vehicle: saline with Tween-80) 78 % of control; (dose: 25.0 mg/kg/injection, schedule: Q04DX004 (sc), vehicle: saline with Tween-80) 57 % of control; (dose: 50.0 mg/kg/injection, schedule: Q04DX004 (sc), vehicle: saline with Tween-80) 77 % of control; under setting [3], 157 % of control; under setting [4], 54 % of control.

Regarding `CC(=O)CC(C)=O.CC(=O)CC(C)=O.O=N[O-].O=N[O-].[Co]`, the T/C runs as follows: under setting [3], 52 % of control; under setting [4], 92 % of control; under setting [5], 48 % of control.

Regarding `C=C(NC(=O)C(=C)NC(=O)c1csc(C2=NC3c4csc(n4)C4NC(=O)c5csc(n5)C(C(C)(O)C(C)O)NC(=O)C5CSC(=N5)/C(=C/C)NC(=O)C(C(C)O)NC(=O)c5csc(n5)C3(CC2)NC(=O)C(C)NC(=O)C(=C)NC(=O)C(C)NC(=O)C(C(C)CC)NC2C=Cc3c(C(C)O)cc(nc3C2O)C(=O)OC4C)n1)C(N)=O` (configuration not stated), the T/C runs as follows: (dose: 200.0 mg/kg/injection, schedule: Q01DX010 (sc), vehicle: Klucel (hydroxypropylcellulose) (HPC)) 34 % of control; (dose: 800.0 mg/kg/injection, schedule: Q01DX010 (sc), vehicle: Klucel (hydroxypropylcellulose) (HPC)) 27 % of control and 49 % of control; (dose: 3200.0 mg/kg/injection, schedule: Q01DX010 (sc), vehicle: Klucel (hydroxypropylcellulose) (HPC)) 50 % of control.

For the compound `CC1=NN(c2cccc(S(=O)(=O)O)c2)C(=O)C1N=Nc1cc(Cl)cc(S(=O)(=O)O)c1O.CC1=NN(c2cccc(S(=O)(=O)O)c2)C(=O)C1N=Nc1cc(Cl)cc(S(=O)(=O)O)c1O.[Cr]` (configuration not stated), the T/C by setting is: (dose: 150.0 mg/kg/injection, schedule: Q04DX004 (sc), vehicle: saline) 94 % of control; (dose: 300.0 mg/kg/injection, schedule: Q04DX004 (sc), vehicle: saline) 121 % of control; (dose: 600.0 mg/kg/injection, schedule: Q04DX004 (sc), vehicle: saline) 61 % of control.

Turning to `CC1CC(C)CC(C)C(O)/C(C#N)=C/C=C/CC(C2CCCC2C(=O)O)OC(=O)CC(O)C(C)C1` (configuration not stated), the T/C is 87 % of control (dose: 1.5 mg/kg/injection, schedule: Q04DX004 (sc), vehicle: Klucel (hydroxypropylcellulose) (HPC)); 76 % of control (dose: 3.0 mg/kg/injection, schedule: Q04DX004 (sc), vehicle: Klucel (hydroxypropylcellulose) (HPC)); 40 % of control (dose: 6.0 mg/kg/injection, schedule: Q04DX004 (sc), vehicle: Klucel (hydroxypropylcellulose) (HPC)); 69 % of control (dose: 12.0 mg/kg/injection, schedule: Q04DX004 (sc), vehicle: Klucel (hydroxypropylcellulose) (HPC)).

As for `[Cl][Pt+2][Cl].[NH-]C1CCC1.[NH2-]`, the T/C is, setting by setting: (dose: 6.25 mg/kg/injection, schedule: Q04DX004 (sc), vehicle: suspension in saline) 54 % of control; (dose: 12.5 mg/kg/injection, schedule: Q04DX004 (sc), vehicle: suspension in saline) 41 % of control; (dose: 25.0 mg/kg/injection, schedule: Q04DX004 (sc), vehicle: suspension in saline) 46 % of control.

For the compound `O=C1c2cccc3cc([N+](=O)[O-])cc(c23)C(=O)N1CCN1CCCC1`, the T/C by setting is: (dose: 18.0 mg/kg/injection, schedule: Q04DX004 (sc), vehicle: saline with Tween-80) 110 % of control; (dose: 36.0 mg/kg/injection, schedule: Q04DX004 (sc), vehicle: saline with Tween-80) 115 % of control.

On to `CNC(=O)ON(C(C)=O)C(=O)NC`, for which the T/C is 75 % of control under setting [2]; 109 % of control (dose: 50.0 mg/kg/injection, schedule: Q01DX010 (sc), vehicle: saline); 34 % of control under setting [6]; 13 % of control (dose: 100.0 mg/kg/injection, schedule: Q01DX010 (sc), vehicle: saline); 116 % of control (dose: 100.0 mg/kg/injection, schedule: Q04DX004 (sc), vehicle: suspension in saline); 114 % of control under setting [1]. Further, the T/C (dose: 200.0 mg/kg/injection, schedule: Q04DX004 (sc), vehicle: suspension in saline) was 57 % of control and the T/C (dose: 250.0 mg/kg/injection, schedule: Q04DX004 (sc), vehicle: suspension in saline) is 18 % of control.

On to `N#C[C@H](OC1OC(COC2OC(CO)C(O)C(O)C2O)C(O)C(O)C1O)c1ccccc1` (some centres not stated), for which the T/C (dose: 450.0 mg/kg/injection, schedule: Q04DX004 (sc), vehicle: suspension in saline) is 101 % of control; the T/C (dose: 900.0 mg/kg/injection, schedule: Q04DX004 (sc), vehicle: suspension in saline) was 67 % of control; the T/C (dose: 1800.0 mg/kg/injection, schedule: Q04DX004 (sc), vehicle: suspension in saline) was 56 % of control; the T/C (dose: 3600.0 mg/kg/injection, schedule: Q04DX004 (sc), vehicle: suspension in saline) is 69 % of control.

For `Clc1ccc(C(c2ccccc2Cl)C(Cl)Cl)cc1` (configuration not stated), the T/C by setting is: (dose: 1200.0 mg/kg/injection, schedule: Q04DX004 (sc), vehicle: saline) 99 % of control; (dose: 2400.0 mg/kg/injection, schedule: Q04DX004 (sc), vehicle: saline) 64 % of control; (dose: 4800.0 mg/kg/injection, schedule: Q04DX004 (sc), vehicle: saline) 77 % of control; (dose: 9600.0 mg/kg/injection, schedule: Q04DX004 (sc), vehicle: saline) 67 % of control.

Take `C[C@]12CC[C@H](O)CC1=CC[C@@H]1[C@@H]2CC[C@]2(C)C(=O)CC[C@@H]12`: the T/C runs as follows: under setting [3], 110 % of control; under setting [4], 180 % of control; under setting [5], 54 % of control; (dose: 600.0 mg/kg/injection, schedule: Q04DX004 (sc), vehicle: saline with Tween-80) 67 % of control.

Take `C[C@@H](CN1CC(=O)NC(=O)C1)N1CC(=O)NC(=O)C1`: the T/C was 232 % of control (dose: 100.0 mg/kg/injection, schedule: Q01DX010 (sc), vehicle: saline with Tween-80) and 46 % of control (dose: 200.0 mg/kg/injection, schedule: Q01DX010 (sc), vehicle: saline with Tween-80).

`Cc1c(N)nc([C@H](CC(N)=O)NC[C@H](N)C(N)=O)nc1C(=O)N[C@H](C(=O)N[C@H](C)[C@@H](O)[C@H](C)C(=O)N[C@H](C(=O)NCCc1nc(-c2nc(C(=O)NCCC[S+](C)C)cs2)cs1)[C@@H](C)O)C(OC1OC(CO)C(O)C(O)C1OC1OC(CO)C(O)C(OC(N)=O)C1O)c1cnc[nH]1` (some centres not stated): the T/C runs as follows: (dose: 4.0 mg/kg/injection, schedule: Q01DX010 (sc), vehicle: saline) 59 % of control; (dose: 6.25 mg/kg/injection, schedule: Q04DX004 (sc), vehicle: saline) 116 % of control; (dose: 8.0 mg/kg/injection, schedule: Q01DX010 (sc), vehicle: saline) 59 % of control; (dose: 8.0 mg/kg/injection, schedule: Q04DX004 (sc), vehicle: saline) 111 % of control; (dose: 16.0 mg/kg/injection, schedule: Q04DX004 (sc), vehicle: saline) 114 % of control; (dose: 25.0 mg/kg/injection, schedule: Q04DX004 (sc), vehicle: saline) 160 % of control. In addition, the T/C by setting is: (dose: 32.0 mg/kg/injection, schedule: Q04DX004 (sc), vehicle: saline) 43 % of control; under setting [6], 113 % of control; (dose: 64.0 mg/kg/injection, schedule: Q01DX010 (sc), vehicle: saline) 42 % of control.

For the compound `O=C(O)CC(=O)O.[NH-]C1CCCCC1[NH-].[Pt+2]` (configuration not stated), the T/C was 264 % of control (dose: 10.0 mg/kg/injection, schedule: Q01DX010 (sc), vehicle: dextrose); 73 % of control (dose: 15.0 mg/kg/injection, schedule: Q01DX010 (sc), vehicle: dextrose); 32 % of control and 43 % of control (dose: 30.0 mg/kg/injection, schedule: Q01DX010 (sc), vehicle: dextrose); 21 % of control (dose: 40.0 mg/kg/injection, schedule: Q01DX010 (sc), vehicle: dextrose); 34 % of control and 44 % of control (dose: 60.0 mg/kg/injection, schedule: Q01DX010 (sc), vehicle: dextrose); 51 % of control (dose: 120.0 mg/kg/injection, schedule: Q01DX010 (sc), vehicle: dextrose).
